Test results reported in the pKa sets of Baltruschat and Czodrowski (2020).

conditions: acidic group

Structure (SMILES)	pKa
CCOc1ccccc1/C=C/C(=O)O	4.68
O=C(O)[C@H]1C[C@@H]1c1cccc([N+](=O)[O-])c1	4.41
N#CC(C#N)=NNc1ccc([N+](=O)[O-])cc1	5.5
[NH3+]CCCCCCCCCCCC(=O)O	4.65
O=C(O)C#Cc1ccccc1	2.26
Cc1cccc([Se](=O)O)c1	4.8
CCC[NH2+]CC(=O)O	2.31
COc1ccc(C(=S)Nc2ccc(Br)cc2)cc1	10.9
Cc1cccc(C)c1NN=C(C#N)C#N	6.6
NC(=O)NOCC(=O)O	2.6
OCc1ccc(O)cc1	9.82
O=[N+]([O-])c1n[nH]c(-n2cnc(Br)n2)n1	1.63
N#CC(C#N)Cc1ccc([N+](=O)[O-])cc1	10.9
O=C(O)c1cccc(C2CC2)c1	4.28
Brc1ccccc1-c1nnn[nH]1	3.83
[NH3+]CCNC(=S)S	2
Cc1ccc(O)c2[n+]1CCS2	4.7
Cc1[nH]c(-c2ccccc2S)[nH+]c1C	3.9
Cc1cc(C)nc(NS(=O)(=O)c2ccc(O)cc2)n1	7.52
O=c1ccc(O)c(Br)cc1	4.9
Cc1cc([N+](=O)[O-])ccc1C(=O)O	2.91

Structure (SMILES)	pKa
O=C(O)CCCl	4.04
Oc1ccc(Cl)cc1	9.29
Cc1cc(=O)oc2ccc(O)cc12	9.14
Cc1cc(C#N)cc(C)[n+]1O	-0.61
CCC(=O)c1cc(C(=O)C(C)(C)C)n[nH]1	9.7
CC(C)[NH2+]CC(=O)c1ccc(O)cc1	7.56
O=C1CCc2cc(I)ccc2C1	12.4
Cc1cccc(/C=C/C(=O)O)c1	4.44
CC(c1ccc([N+](=O)[O-])cc1)[N+](=O)[O-] (centres undefined)	6.51
Cc1ccc(O)c(C(=O)[O-])c1	14
O=C(O)c1cc[nH]n1	3.84
COc1ccc(NC(=S)c2cccc(Br)c2)cc1	11
CCCCc1c(C)nn(-c2ccccc2)c1O	11.4
CC(C)(C)OO	12.8
N#CC(O)=C(C#N)C#N	1.9
C[NH2+]C(C)C(=O)O (centres undefined)	2.22
Oc1c(Cl)cc(Cl)cc1C[NH+]1CCCCC1	5.97
NS(=O)(=O)c1nccs1	8.25
CC(=O)Nc1nnc(-c2ccccc2)s1	8.9
O=C1C=CC(=O)c2c(O)cccc21	8.7
Nc1ccc(NS(=O)(=O)c2ccccc2)cc1	9.05

Structure (SMILES)	pKa
COC(=O)CC(=N/[O-])/C(C)=N/O	11.6
CC/C(N=O)=N/O	5.8
Oc1c2c(nn1-c1ccccc1)CCCC2	11.4
CC(C)C(=O)CC(=O)C(C)C	9.86
c1ccc2c(c1)ccc1nc[nH]c12	12.5
c1ncc2cn[nH]c2n1	9.54
CC(=O)N[C@H]1CC(=O)NC1=O	8.85
Oc1ccc2cnccc2c1	9.15
CC1=CC(=Nc2ccc(O)cc2)C=C(C)C1=O	8.9
[NH3+]CCCCCC(=O)O	4.37
C[NH+](C)CCCCCCNC(=O)/C=N/O	8.93
Cc1ccc(C(=O)N(C)O)cc1	8.5
CN(O)C(=O)c1ccccc1	8.07
CC(C)O	16.1
CC(=O)c1cc(C)c(C)cc1O	11.6
Cc1ccc(C(=S)Nc2cccc(F)c2)cc1	10.6
CN(CCC[NH+](C)C)C(=O)/C=N/O	8.68
Clc1ncnc2nc[nH]c12	7.75
CCCCC1(CC)C(=O)[N-]C(=S)NC1=O	12.1
O=C(O)[C@@H]1O[C@H](Oc2ccc(I)cc2)[C@@H](O)[C@H](O)[C@H]1O	3.28
O=[N+]([O-])c1n[nH]c(-n2cnc(Cl)n2)n1	1.59

Structure (SMILES)	pKa
Cc1csc(S(N)(=O)=O)n1	8.35
Cc1cc(O)c(C(C)C)cc1Nc1ccc(O)cc1	9.85
O=C(O)c1ccsc1	4.03
CCCc1c(C)[nH]n(C2CC[NH+](C)CC2)c1=O	7.18
COc1ncnc2nc[nH]c12	9.16
O=C1C(O)=C(/C=C/c2ccccc2)C(=O)c2ccccc21	4.44
O=C(O)c1cccc(=O)cc1	3.2
Oc1nccc[nH+]1	2.24
O=P(C1CCCCC1)(C1CCCCC1)C1CCCCC1	13.7
O/N=C/c1ccc(O)cc1	8.78
CC[NH+](CC)CCOc1ccccc1C(=O)NO	8.42
Cc1cc(O)n(-c2nc(O)cc(C)[nH+]2)n1	5.23
COc1ccc(/C=C\C(=O)O)cc1	4.03
Cc1cc(C#N)cc[n+]1O	-0.67
O=C(O)C#CC[NH+]1CCOCC1	1.79
O=P([O-])(O)C([NH2+]Cc1ccncc1)c1ccccc1O (centres undefined)	5.2
Oc1cc2ccccc2cc1C1=[NH+]CCN1	7.01
CC(c1cccc(F)c1)[N+](=O)[O-] (centres undefined)	7.05
O=CNO	8.77
CCNC(=S)OC(C)C	11.5

same assay, conditions: basic group

Structure (SMILES)	pKa
Cc1ccc(C(C)C)c(OCCN(C)C)c1	8.66
C[NH+](C)CCC/N=C(\c1ccccc1)c1ccc2ccccc2c1	5.1
CCCCCN(CC(C)O)CC(C)O (centres undefined)	9
COc1ccc([N+](=O)[O-])cc1C(=O)N[C@@H]1C[C@H]2CC[C@@H](C1)N2Cc1ccccc1	8.7
N[C@H]1CCCC[C@@H]1C(=O)[O-]	10.1
[NH3+]CCc1cnc[nH]1	6.28
CCCCCCN	10.7
Cc1cccc(C)c1NN=C(C#N)C#N	-0.82
c1cc(-c2ccoc2)ccn1	5.72
O=C([O-])[C@@H]1Cc2[nH]cnc2CN1	8.58
CCN(CC)CCOCCN(C)C	10.2
CCCCCNCc1ccc(C)cc1	10.1
Clc1nc2cc3c(cc2[nH]1)CCCC3	2.68
CCC(=O)SCCN(C)C	8.28
CC(C)N(C)/C=[NH+]/c1ccc(-c2c[nH]cn2)cc1	5.52
[NH3+]Cc1ccncc1	4.05
Nc1ccc(C(=O)c2ccc([NH3+])cc2)cc1	1.37
Cc1cc([S-])[nH+]c([S-])n1	6.87
c1ccc(CNc2nc[nH+]c3[nH]cnc23)cc1	-1
CCCCCCCCCCCCCCN(CCO)CC(O)CC (centres undefined)	6.1
Cc1nc2ccccc2n(C)c1=O	0.51
CN1[C@@H]2C[C@@H]3C[C@H]1[C@@H](O)[C@H]2O3	8.2
Nc1cccc2c1ccc1ncccc12	5.2

Structure (SMILES)	pKa
c1cc2c(nn1)CCCC2	4.3
C[NH+](C)CCCNc1ccnc2cccc([N+](=O)[O-])c12	6.39
CCN(CC)CCCC(C)Nc1ccnc2ccccc12 (centres undefined)	10.2
CCCCN(C)N(C)CCCC	7.16
c1cncc(-c2ccco2)c1	4.62
CN(C)c1cccc(C#N)c1	2.97
CN(C)C[C@H]1[C@@H]2CC[C@@](C)([C@H]1N)C2(C)C	9.84
COc1nc2ccccc2nc1C	1.38
CCN(CC)CC(=O)[O-]	10.5
Cc1c2ccncc2cc2c1[nH]c1cc[nH+]cc12	5.3
c1cc(N2CCCC2)cc[nH+]1	-0.53
CCN(CC)CCO	9.84
Cc1cc(C)nc(N)c1	7.84
CCN(CC)CCCC(C)Nc1cc(OC)cc2cccnc12 (centres undefined)	10.3
OCC1CC2CCN1CC2 (centres undefined)	10.8
CCCCOC(=N)c1ccccc1	6.09
C[n+]1cnc2nc([O-])cnc2c1[O-]	6.19
CCCCCCCCCCN(CC(C)O)CC(C)O (centres undefined)	7.6
COc1ccc2c3c1O[C@H]1CCC[C@H]4[C@H](NCC[C@]314)[C@H]2O	8.72
CCN(CC)c1nc(N)nc(N(CC)CC)n1	6.28
c1ccc2c(c1)ccc1nc[nH]c12	5.28
Cc1ccc(/N=C/N(C)C)cc1	9.21
c1ncc2cn[nH]c2n1	2.84

Structure (SMILES)	pKa
Nc1ccc2c(Cl)c3ccccc3nc2c1	6.74
NC12CCC(C1)C2	9.3
Oc1ccc2cnccc2c1	5.85
CN(C)c1cc[nH+]cc1	-7.78
CCOCCn1c(CN2CCC[NH+](CCCCn3cccn3)CC2)nc2ccccc21	4.9
Cn1c(=O)c2[nH]c[nH+]c2n(C)c1=O	0.7
[NH3+]CCc1ccccn1	3.93
c1cc(C2CCCN2)nc(C2CCCN2)c1 (centres undefined)	10.1
CC(C)(N)Cc1ccccc1	10.1
CCCCCCCCCCCCCCCCCN	10.6
OC1(c2ccco2)CN2CCC1CC2 (centres undefined)	9.06
CCN(Cl)CC	1.02
[O-]c1cc2ccccc2nn1	8.61
CC1(C)S[C@H]2[C@@H](NC(=O)Cc3ccc(N)cc3)C(=O)N2[C@@H]1C(=O)[O-]	4.6
CN(C)c1ccncn1	6.35
OCc1cc(-c2ccccc2)nnc1NCC[NH+]1CCOCC1	3.81
CCCCCC(C)NC (centres undefined)	11
c1ccc2c(c1)N1CCN2CC1	5.65
N[C@@H](Cc1nc(I)[n-]c1I)C(=O)[O-]	9.76
Nc1cccnc1	6.08
CN(C)c1ccccc1C(=O)[O-]	8.46
CC[NH+](CC)CCOCCN(C)C	8.4
N[C@H]1CC(=O)NC1=O	9

Structure (SMILES)	pKa
CNc1ccccc1	4.8
COc1ccc2c3c1O[C@H]1CCC[C@H]4[C@H](NCC[C@]314)[C@@H]2O	9.17
O=C([O-])C(CO)NCc1cc(Cl)ccc1[O-] (centres undefined)	10.2
Nc1cc(Br)cc(Br)c1	2.49
NCc1cc(Cl)ccc1[N+](=O)[O-]	8.19
CSCCN	9.41
Cc1ccc(N)cc1	5.04
COc1ncnc2nc[nH]c12	2.21
COc1ccc2c3c1O[C@H]1CCC[C@H]4[C@@H](C2)N(C)CC[C@]314	8.83
O=P(C1CCCCC1)(C1CCCCC1)C1CCCCC1	5.04
CCOc1ccnc([O-])n1	10.7
CN(C)CCCCCCCCCNC(=O)/C=N/[O-]	10.5
CN1CC(O[Si](C)(C)C)C1	9.1
Cn1cnc(=O)c(-c2ccccc2)c1	1.99
COCCNc1ccc(Cl)cc1	3.3
[O-]c1cccc(Cl)n1	7.76
CC(=O)c1ccc(N)cc1	2.27
Cc1cnc2c(C)ccc([N+](=O)[O-])c2c1NCCC[NH+](C)C	6.1
O=[N+]([O-])c1ccc2[nH]ncc2c1	0.13
Cc1cnc2c(ccc3c(C)ccnc32)c1	5.57
O=P([O-])(O)C([NH2+]Cc1ccncc1)c1ccccc1O (centres undefined)	3.15
Nc1ccccc1-c1nc2ccccc2s1	2.6
